Measured values taken from patent US20060094702A1, “5-HT4 receptor antagonists” (SMITHKLINE BEECHAM P.L.C., priority 1993, published 2006).

Molecular target: T1, 5-HT4 receptor (Cavia porcellus, UniProt O70528)
T1 construct: Longitudinal muscle-myenteric plexus preparations, approximately 3 cm long, are obtained from the distal colon region; from tissue; host or cells: guinea-pig distal colon longitudinal muscle-myenteric plexus
Test: Guinea pig colon 5-HT4 receptor antagonist activity (5-HT evoked contraction of longitudinal muscle-myenteric plexus)
Conditions: guinea-pig distal colon longitudinal muscle-myenteric plexus; contractions evoked by 5-HT; methiothepin 10^-7M and granisetron 10^-6M present; read-out: pIC50 (-log concentration of antagonist which reduces the contraction by 50%) (converted)
Description: 5-HT4 Receptor Antagonist Activity
Male guinea-pigs, weighing 250-400 g are used. Longitudinal muscle-myenteric plexus preparations, approximately 3 cm long, are obtained from the distal colon region. These are suspended under a 0.5 g load in isolated tissue baths containing Krebs solution bubbled with 5% CO2 in O2 and maintained at 37° C. In all experiments, the Krebs solution also contains methiothepin 10^-7M and granisetron 10^-6M to block effects at 5-HT1, 5-HT2 and 5-HT3 receptors.
After construction of a simple concentration-response curve with 5-HT, using 30 s contact times and a 15 min dosing cycle, a concentration of 5-HT is selected so as to obtain a contraction of the muscle approximately 40-70% maximum(10^-9M approx). The tissue is then alternately dosed every 15 min with this concentration of 5-HT and then with an approximately equi-effective concentration of the nicotine receptor stimulant, dimethylphenylpiperazinium (DMPP). After obtaining consistent responses to both 5-HT and DMPP, increasing concentrations of a putative 5-HT4 receptor antagonist are then added to the bathing solution. The effects of this compound are then determined as a percentage reduction of the contractions evoked by 5-HT or by DMPP. […] A compound which reduces the response to 5-HT but not to DMPP is believed to act as a 5-HT4 receptor antagonist.

T1 sequence (O70528 whole entry): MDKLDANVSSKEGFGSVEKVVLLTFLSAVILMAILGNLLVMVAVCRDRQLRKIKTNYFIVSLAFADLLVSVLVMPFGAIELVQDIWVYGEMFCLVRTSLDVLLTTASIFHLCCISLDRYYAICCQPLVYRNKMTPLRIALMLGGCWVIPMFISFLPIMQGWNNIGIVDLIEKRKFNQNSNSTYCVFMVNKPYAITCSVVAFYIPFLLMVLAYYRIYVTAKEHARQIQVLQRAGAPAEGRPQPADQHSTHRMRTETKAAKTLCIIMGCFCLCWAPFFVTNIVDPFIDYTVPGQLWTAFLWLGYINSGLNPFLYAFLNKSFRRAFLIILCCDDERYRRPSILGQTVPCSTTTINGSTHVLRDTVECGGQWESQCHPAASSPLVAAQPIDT

In the case of CCCCN1CCC(CCC(=O)c2cn(C)c3ccccc23)CC1 [Example 1, 1-(1-Methyl-1H-indol-3-yl)-3-(1-butylpiperidin-4-yl)propan-1-one], the IC50 is reported as 158 nM.
